{
  "source": "patent US12275711B2",
  "about": "“Compounds having excited state intramolecular proton transfer (ESIPT) character for use in treating and/or preventing sunburn and/or preventing U.V. damage” (UNIVERSITY OF THE WITWATERSRAND, JOHANNESBURG, priority 2019, dated 2025)",
  "key": {"[1]": {"test": "UV absorbance, molar absorptivity coefficients (ε) of the synthesized compounds", "format": "physicochemical", "protocol": "The synthesized compounds 4c, 5, 6, 9, 10, 13a, 13b, 14, 20, 21, and 23, were analysed for their UV absorbances and their molar absorptivity coefficients (e) were determined."}, "[2]": {"settings": "in L mol-1 cm-1, cited from earlier work"}},
  "note": "Like-named read-outs stand apart in the source and are kept apart here.",
  "data": [
    {"compound": "CCCCCCCCCCCCCCCc1ccc(C(=O)/C=C/c2ccccc2)c(O)c1", "note": "[Compound 13a, (E)-1-(2-hydroxy-4-pentadecylphenyl)-3-phenylprop-2-en-1-one]", "values": [
      {"measurement": "experimental ε value (molar absorptivity coefficient)", "setting": "[1]; at 314 nm", "result": "20,403 L mol^−1 cm^−1"}
    ]},
    {"compound": "CCCCCCCCCCCCCCCc1ccc(-c2nc(-c3ccc(CCCCCCCCCCCCCCC)cc3O)nc(-c3ccc(CCCCCCCCCCCCCCC)cc3O)n2)c(O)c1", "note": "[Compound 21, 6,6′,6″-(1,3,5-Triazine-2,4,6-triyl)tris(3-pentadecylphenol)]", "values": [
      {"measurement": "experimental ε value (molar absorptivity coefficient)", "setting": "[1]; at 300 nm", "result": "21,452 L mol^−1 cm^−1"},
      {"measurement": "experimental ε value (molar absorptivity coefficient)", "setting": "[1]; at 364 nm", "result": 12500, "unit": "L/mol/cm"}
    ]},
    {"compound": "CCCCC(CC)COC(=O)C=Cc1ccc(OC)cc1", "note": "(centres unmarked) [2-ethylhexyl 4-methoxycinnamate]", "values": [
      {"measurement": "experimental molar absorption coefficient", "setting": "[2]; at 356 nm", "result": "39,470"}
    ]},
    {"compound": "CCCCCCCCCCCCCCCc1cc(O)c2c(=O)c3c(O)cccc3oc2c1", "note": "[Compound 14, 1,8-Dihydroxy-3-pentadecyl-9H-xanthen-9-one]", "values": [
      {"measurement": "ε value (molar absorptivity coefficient)", "setting": "[1]; at 254 nm", "result": 23800, "unit": "L/mol/cm"}
    ]},
    {"compound": "CCCCCCCCCCCCCCCc1ccc2c(=O)c(O)c(-c3ccccc3)oc2c1", "note": "[Compound 13b, 3-Hydroxy-7-pentadecyl-2-phenyl-4H-chromen-4-one]", "values": [
      {"measurement": "experimental ε value (molar absorptivity coefficient)", "setting": "[1]; at 314 nm", "result": 39900, "unit": "L/mol/cm"},
      {"measurement": "experimental ε value (molar absorptivity coefficient)", "setting": "[1]; at 345 nm", "result": 45000, "unit": "L/mol/cm"}
    ]},
    {"compound": "COc1ccc(C(=O)CC(=O)c2ccc(C(C)(C)C)cc2)cc1", "note": "[avobenzone]", "values": [
      {"measurement": "experimental molar absorption coefficient", "setting": "[2]; at 310 nm", "result": "31,670"}
    ]},
    {"compound": "CCCCCCCCCCCCCCCc1ccc(-c2nnc(-c3ccc(OC)c(OC)c3)o2)c(O)c1", "note": "[Compound 23, 2-[5-(3,4-Dimethoxyphenyl)-1,3,4-oxadiazol-2-yl]-5-pentadecylphenol]", "values": [
      {"measurement": "experimental ε value (molar absorptivity coefficient)", "setting": "[1]; at 293 nm", "result": "3,373 L mol^−1 cm^−1"},
      {"measurement": "experimental ε value (molar absorptivity coefficient)", "setting": "[1]; at 326 nm", "result": "6,367 L mol^−1 cm^−1"}
    ]},
    {"compound": "CCCCCCCCCCCCCCCc1cccc(O)c1C(=O)c1ccccc1O", "note": "[Compound 4c, [2-(Hydroxy)-6-pentadecylphenyl](2-hydroxyphenyl)methanone]", "values": [
      {"measurement": "experimental ε value (molar absorptivity coefficient)", "setting": "[1]; at 261 nm", "result": "36,366 L mol^−1 cm^−1"},
      {"measurement": "experimental ε value (molar absorptivity coefficient)", "setting": "[1]; at 335 nm", "result": "10,538 L mol^−1 cm^−1"}
    ]},
    {"compound": "CCCCCCCCCCCCCCCc1ccc(-c2nc(-c3ccccc3)nc(-c3ccccc3)n2)c(O)c1", "note": "[Compound 20, 2-(4,6-Diphenyl-1,3,5-triazin-2-yl)-5-pentadecylphenol]", "values": [
      {"measurement": "ε value (molar absorptivity coefficient)", "setting": "[1]; at 278 nm", "result": "29,252 L mol^−1 cm^−1"}
    ]},
    {"compound": "CCCCCCCCCCCCCCCc1cccc(O)c1C(=O)c1cc(OC)c(OC)cc1O", "note": "[Compound 6, (2-Pentadecyl-6-hydroxyphenyl)(2-hydroxy-4,5-dimethoxyphenyl)methanone]", "values": [
      {"measurement": "ε value (molar absorptivity coefficient)", "setting": "[1]; at 287 nm", "result": "34,096 L mol^−1 cm^−1"},
      {"measurement": "ε value (molar absorptivity coefficient)", "setting": "[1]; at 358 nm", "result": "25,014 L mol^−1 cm^−1"}
    ]},
    {"compound": "CCCCCCCCCCCCCCCc1ccc(C(=O)c2ccccc2O)c(O)c1", "note": "[Compound 10, (2-hydroxy-4-pentadecylphenyl)(2-hydroxyphenyl)methanone]", "values": [
      {"measurement": "experimental ε value (molar absorptivity coefficient)", "setting": "[1]; at 282 nm", "result": 31700, "unit": "L/mol/cm"}
    ]},
    {"compound": "CCCCCCCCCCCCCCCc1cccc(O)c1C(=O)c1cc(OC)ccc1O", "note": "[Compound 5, (2-Hydroxy-5-methoxyphenyl)(2-hydroxy-6-pentadecylphenyl)methanone]", "values": [
      {"measurement": "ε value (molar absorptivity coefficient)", "setting": "[1]; at 265 nm", "result": "18,439 L mol^−1 cm^−1"},
      {"measurement": "ε value (molar absorptivity coefficient)", "setting": "[1]; at 374 nm", "result": "8,785 L mol^−1 cm^−1"}
    ]},
    {"compound": "CCCCCCCCCCCCCCCc1ccc(C(=O)c2ccccc2)c(O)c1", "note": "[Compound 9, (2-Hydroxy-4-pentadecylphenyl)(phenyl)methanone]", "values": [
      {"measurement": "experimental ε value (molar absorptivity coefficient)", "setting": "[1]; at 279 nm", "result": "47,909 L mol^−1 cm^−1"}
    ]},
    {"compound": "COc1ccc(C(=O)c2ccccc2)c(O)c1", "note": "[oxybenzone]", "values": [
      {"measurement": "experimental molar absorption coefficient", "setting": "[2]; at 287 nm", "result": "15,150"}
    ]}
  ]
}
